# From publication PMC8445441, “Elucidating the mechanism by which synthetic helper peptides sensitize Pseudomonas aeruginosa to multiple antibiotics” (PLoS Pathogens, 2021)
# Read-outs that look alike come from different tables or passages of the source. Non-standard residues stand in square brackets, D forms with d. Residues, ends and D or L forms follow the SMILES beside them. No end group written: not given here.
# How the values were obtained:
# P. aeruginosa PAO1 = assay: microbe, parasite or virus in culture
# Method: (§1) The MIC tests were performed in triplicate using broth microdilution in accordance with Clinical and Laboratory Standards Institute (CLSI) recommendations (http://iacld.ir/DL/public/CLSI-2018-M100-S28.pdf). Briefly, drugs were two-fold diluted in MHB and mixed with an equal volume of bacterial suspensions containing approximately 1 × 10^6 CFU/mL in 96-well microliter plate. After 18 h incubation at 37 °C, the MIC values were defined as the lowest concentrations of antibiotics with no visible growth of bacteria. […] Otherwise, 1/4 MIC of the peptide was used in the combination. […] If needed, membrane compounds PG, PE, PC, CL or LPS, or membrane stabilizers MgCl2 or CaCl2, or efflux pumps inhibitor PAβN were added to the broth medium to clarify the effect of other substances on the synergy between peptide and antibiotics. All the tests were performed in triplicate.
# The fractional inhibitory concentration (FIC) indices were calculated using the previously described formula FICI = FICa + FICb = MICac/MICa + MICbc/MICb. The FICI was interpreted according to EUCAST [65] as follows: synergistic, FICI≤0.5; additive, 0.5<FICI≤1; indifferent, 1<FICI<2; antagonistic, FICI ≥2. For the FICI calculations, twice the highest concentration tested was used in the cases where the MIC was not reached.
# [1] = tested on: clinical P. aeruginosa isolates; assay: microbe, parasite or virus in culture; details: Pseudomonas aeruginosa, 18 h, antibiotic alone
# Method: The bacterial strains, primers and plasmids used in this study are listed in S5 Table. […] Bacteria were cultured in LB medium or cation-adjusted Muller-Hinton broth (CA-MHB) at 37 °C with agitation at 220 rpm. All the antibiotics and chemical compounds used in this study were purchased from Sigma-Aldrich.
# as §1
# [2] = PAO1, peptide + azithromycin, twice the highest concentration used where MIC not reached
# [3] = peptide alone, PAO1, broth microdilution in MHB, 18 h, 37 °C, triplicate
# [4] = PAO1, peptide + Azithromycin, higher peptide concentration line
# [5] = PAO1, peptide + Azithromycin, lower peptide concentration line
# [6] = PAO1, peptide + Clarithromycin, higher peptide concentration line
# [7] = PAO1, peptide + Clarithromycin, lower peptide concentration line
# [8] = PAO1, peptide + Erythromycin, higher peptide concentration line
# [9] = PAO1, peptide + Erythromycin, lower peptide concentration line
# [10] = PAO1, peptide + Spiramycin, higher peptide concentration line
# [11] = PAO1, peptide + Spiramycin, lower peptide concentration line
# [12] = PAO1, peptide + Telithromycin, higher peptide concentration line
# [13] = PAO1, peptide + Telithromycin, lower peptide concentration line
# [14] = S3 Table, PAO1, antibiotic + 2 μM D-11
# [15] = S3 Table, PAO1, antibiotic + 4 μM D-11
molecule,measurement,setting,value
RIVQWIKKWLR-NH2 [Peptide L-11-R5W],FICI,P. aeruginosa PAO1; [2],1.250
same,MICb: the MIC of the peptide,P. aeruginosa PAO1; [3],4 µM
CC[C@@H](C)[C@@H](NC(=O)[C@@H](CCCCN)NC(=O)[C@@H](CCCCN)NC(=O)[C@@H](Cc1c[nH]c2ccccc12)NC(=O)[C@@H](CC(C)C)NC(=O)[C@H](N)CCCNC(=N)N)C(=O)N[C@H](CCCNC(=N)N)C(=O)N[C@H](CCC(N)=O)C(=O)N[C@@H](C(=O)N[C@@H](C(=O)N[C@H](CCCNC(=N)N)C(=O)N[C@H](CCCCN)C(N)=O)[C@H](C)CC)C(C)C [Peptide D-11R] (H-[dR][dL][dW][dK][dK][dI][dR][dQ][dV][dI][dR][dK]-NH2),MICb: the MIC of the peptide,"P. aeruginosa PAO1; PAO1, 18 h",32 µM
NGVQPKYK [PEP9],MICb: the MIC of the peptide,"P. aeruginosa PAO1; PAO1, 18 h",> 32 µM
CC[C@@H](C)[C@@H](NC(=O)[C@H](N)CCCNC(=N)N)C(=O)N[C@@H](C(=O)N[C@H](CCC(N)=O)C(=O)N[C@H](CCCNC(=N)N)C(=O)N[C@@H](C(=O)N[C@H](CCCNC(=N)N)C(=O)N[C@H](CCCNC(=N)N)C(=O)N[C@H](Cc1c[nH]c2ccccc12)C(=O)N[C@H](CC(C)C)C(=O)N[C@H](CCCNC(=N)N)C(N)=O)[C@H](C)CC)C(C)C [D-11-k(r)] (H-[dR][dI][dV][dQ][dR][dI][dR][dR][dW][dL][dR]-NH2),FICI,P. aeruginosa PAO1; [4],0.156
same,FICI,P. aeruginosa PAO1; [5],0.188
same,FICI,P. aeruginosa PAO1; [6],0.156
same,FICI,P. aeruginosa PAO1; [7],0.125
same,FICI,P. aeruginosa PAO1; [8],0.188
same,FICI,P. aeruginosa PAO1; [9],0.188
same,FICI,P. aeruginosa PAO1; [10],1.125
same,FICI,P. aeruginosa PAO1; [11],1.063
same,FICI,P. aeruginosa PAO1; [12],0.188
same,FICI,P. aeruginosa PAO1; [13],0.188
same,FICI,P. aeruginosa PAO1; [2],0.156
same,MICb: the MIC of the peptide,"P. aeruginosa PAO1; S1 Table, peptide alone, PAO1",64 µM
CC[C@@H](C)[C@@H](NC(=O)[C@@H](CCCNC(=N)N)NC(=O)[C@@H](CCCNC(=N)N)NC(=O)[C@@H](Cc1ccccc1)NC(=O)[C@@H](CC(C)C)NC(=O)[C@@H](CCCNC(=N)N)NC(=O)[C@H](N)CCCNC(=N)N)C(=O)N[C@H](CC(C)C)C(=O)N[C@H](CCCNC(=N)N)C(=O)N[C@H](Cc1c[nH]c2ccccc12)C(=O)N[C@H](CC(C)C)C(N)=O [D-RW-BP100] (H-[dR][dR][dL][dF][dR][dR][dI][dL][dR][dW][dL]-NH2),FICI,P. aeruginosa PAO1; [2],1.250
same,MICb: the MIC of the peptide,P. aeruginosa PAO1; [3],8 µM
Cc1onc(-c2ccccc2)c1C(=O)N[C@@H]1C(=O)N2[C@@H]1SC(C)(C)[C@@H]2C(=O)O [Oxacillin],FICI,P. aeruginosa PAO1; [14],1.063
same,FICI,P. aeruginosa PAO1; [15],1.125
CN(C)[C@@H]1C(O)=C(C(N)=O)C(=O)[C@@]2(O)C(O)=C3C(=O)c4c(O)cccc4[C@@](C)(O)[C@H]3C[C@@H]12 [Tetracycline],MIC,"[1]; read-out: Antibiotic sensibility (MIC) of clinical P. aeruginosa isolate AUMC-Pa-2, strain AUMC-Pa-2",64 µM
same,MIC,"[1]; read-out: Antibiotic sensibility (MIC) of clinical P. aeruginosa isolate AUMC-Pa-3, strain AUMC-Pa-3",64 µM
same,MIC,"[1]; read-out: Antibiotic sensibility (MIC) of clinical P. aeruginosa isolate AUMC-Pa-5, strain AUMC-Pa-5",64 µM
same,MIC,"[1]; read-out: Antibiotic sensibility (MIC) of clinical P. aeruginosa isolate AUMC-Pa-6, strain AUMC-Pa-6",64 µM
same,MIC,"[1]; read-out: Antibiotic sensibility (MIC) of clinical P. aeruginosa isolate HM-214, strain HM-214",64 µM
same,MIC,"[1]; read-out: Antibiotic sensibility (MIC) of clinical P. aeruginosa isolate NR-31040, strain NR-31040",64 µM
same,MIC,"[1]; read-out: Antibiotic sensibility (MIC) of clinical P. aeruginosa isolate NR-31041, strain NR-31041",64 µM
GIGKHVGKALKGLKGLLKGLGEC [ADP-1],MICb: the MIC of the peptide,P. aeruginosa PAO1; [3],16 µM
RIVQRIKKWLR-NH2 [Peptide L-11],MIC of the peptide,"P. aeruginosa PAO1; PAO1, 18 h",≥ 32 µM
same,MICb: the MIC of the peptide,"P. aeruginosa PAO1; PAO1, 18 h",32 µM
CC1=C(C(=O)O)N2C(=O)[C@@H](NC(=O)[C@H](N)c3ccccc3)[C@H]2SC1 [Cephalexin],FICI,P. aeruginosa PAO1; [14],1.063
same,FICI,P. aeruginosa PAO1; [15],1.125
KIAKVALKALK [PEP10],FICI,P. aeruginosa PAO1; [2],1.125
same,MICb: the MIC of the peptide,P. aeruginosa PAO1; [3],> 32 µM
RLLFRKIRRLKR [EC5],FICI,P. aeruginosa PAO1; [4],<0.125
same,FICI,P. aeruginosa PAO1; [5],<0.281
same,FICI,P. aeruginosa PAO1; [6],<0.313
same,FICI,P. aeruginosa PAO1; [7],<0.281
same,FICI,P. aeruginosa PAO1; [8],<0.313
same,FICI,P. aeruginosa PAO1; [9],<0.281
same,FICI,P. aeruginosa PAO1; [10],1.063
same,FICI,P. aeruginosa PAO1; [11],1.031
same,FICI,P. aeruginosa PAO1; [12],<0.313
same,FICI,P. aeruginosa PAO1; [13],<0.531
same,FICI,P. aeruginosa PAO1; [2],0.188
same,MICb: the MIC of the peptide,"P. aeruginosa PAO1; S1 Table, peptide alone, PAO1",> 128 µM
same,MIC of the peptide,"P. aeruginosa PAO1; peptide alone, PAO1",≥ 32 µM
same,MICb: the MIC of the peptide,P. aeruginosa PAO1; [3],> 32 µM
RRLFRRILRWL-NH2 [RW-BP100],FICI,P. aeruginosa PAO1; [2],1.250
same,MICb: the MIC of the peptide,P. aeruginosa PAO1; [3],8 µM
KRIVQRIKKWLR-NH2 [KR-12-a2],MIC of the peptide,"P. aeruginosa PAO1; PAO1, 18 h",≥ 32 µM
same,MICb: the MIC of the peptide,"P. aeruginosa PAO1; PAO1, 18 h",32 µM
